# Source: patent publication US20220105150A1, “AMPHIPATHIC ALPHA-HELICAL ANTIMICROBIAL PEPTIDES TREAT INFECTIONS BY GRAM-NEGATIVE PATHOGENS” (priority 2019, published 2022)
# Assays:
# [1] = tested on: Acinetobacter baumannii isolates resistant to classical antibiotics; type: cell-based; conditions: isolates resistant to classical antibiotics
# Text: Thus, shortening the number of carbon atoms between the side-chain amino group and the α-carbon atom from four (Lys) to one (diaminopropionic acid) had very little effect on antibacterial activity (Table 2). We also determined the antibacterial activity of our five AMPs against 20 additional Acinetobacter baumannii isolates from four continents, 12 different countries and 17 different cities that were resistant to 18 different antibiotics. […] Thus, it is very clear that changing the type of positively-charged residue on the polar face of these AMPs had very little effect on the antibacterial activities.
# [2] = tested on: Acinetobacter baumannii strains resistant to Polymyxin B and Colistin; conditions: strains resistant to Polymyxin B and Colistin, 24 h
# Text: The coupling procedure used 5 equivalents of Fmoc-D-amino acid or Fmoc-L-amino acid and HCTU (O-(1H-6-chlorobenzotriazole-1-yl)-1,1,3,3-tetramethyluronium hexafluorophosphate) and 6-Cl-HOBt (1-hydroxy-6-chloro-benztriazole) at 4.5 equivalents in DMF (Fisher Scientific, Denver, Colo.) and N-diisopropylethylamine (DIPEA) 10 equivalents (Oakwood Products, Inc., Estill, S.C.) in N-methyl-2-pyrrolidinone (NMP) (Fisher Scientific, Denver, Colo.) with the first and second couplings at room temperature for 30 min each. The deprotection procedure (removal of Fmoc protecting group) was carried out by treatment of the resin with 0.1 M HOBt (1-hydroxybenzotriazole) in DMF with 20% piperidine for 30 min. […] The resin was removed by filtration and peptide was precipitated with ice-cooled ethyl ether on ice for 15 min. Ether was decanted, the peptide was washed twice with ether and redissolved in acetonitrile/water (1:1, with 0.2% TFA) and the solution lyophilized to obtain the crude peptide. • Analytical and Preparative Purification by Reversed-Phase Chromatography: Analytical RP-HPLC: Column, Luna C18 (2), 250×4.6 mm I.D., 5 μm particle size, 100 Å pore size from Phenomenex (Torrance, Calif.). Run conditions: linear AB gradient (1% acetonitrile/min, starting from 2% acetonitrile) at a flow-rate of 1 ml/min, where eluent A is 0.2% aq. TFA and eluent B is 0.18% TFA in acetonitrile; temperature, 30° C. Preparative RP-HPLC: Peptides were dissolved in 0.2% aq. TFA containing 2% acetonitrile to a final concentration of 10 mg/ml. Following filtration through a 0.45 μm Millipore filter and subsequently through a 0.22 μm filter, the peptide solutions were loaded onto the column via multiple 20-ml injections into a 20-ml injection loop at a flow-rate of 10 ml/min. Column, Luna C18 (2), 250×30 mm I.D., 5 um particle size, 100 Å pore size from Phenomenex. Run conditions: 2% acetonitrile/min gradient up to an acetonitrile concentration 10% below that required to elute the peptide during analytical RP-HPLC, then shallow gradient elution (0.05% or 0.1% acetonitrile/min depending on the complexity of impurities near the product of interest on the analytical run of the crude peptide) at a flow-rate of 10 ml/min (same eluents as shown above for analytical RP-HPLC); at room temperature. • Temperature Profiling of Peptides on Reversed-phase HPLC to Measure Dimerization and Oligomerization: Purified peptides were analyzed on an Agilent 1200 series liquid chromatograph for temperature profiling using a Zorbax 300 SB-C8 column (150 mm×2.1 mm I.D.; 5 μm particle size, 300 Å pore size) from Agilent Technologies. […] Temperature profiling was carried out on peptide mixtures run at each temperature in 2° C. increments from 5° C. to 41° C. and 10° C. increments from 5° C. to 75° C. Twenty minutes was allowed between runs for temperature equilibration. • Characterization of Helical Structure: The mean residue molar ellipticities of peptides were determined by circular dichroism (CD) spectroscopy, using a Jasco J-815 spectropolarimeter (Jasco Inc. Easton, Md., USA) at 5° C. under KP buffer (50 mM NaH2PO4/Na2HPO4/100 mM KCl, pH 7.0) as well as in the presence of an α-helix inducing solvent, 2,2,2-trifluoroethanol, TFE, (50 mM NaH2PO4/Na2HPO4/100 mM KCl, pH 7.0 buffer/50% TFE). A 10-fold dilution of an approximately 500 μM stock solution of the peptide analogs was loaded into a 0.1 cm quartz cell and its ellipticity scanned from 195 to 250 nm.
MIC 101887 [1],MIC 961997 [1],MIC 963618 [1],MIC 964304 [1],MIC 977751 [1],MIC 981653 [1],MIC 1002956 [1],MIC 1007660 [1],MIC 1010282 [1],MIC 1035166 [1],MIC MB9941 [2],MIC MB9949 [2],MIC MB9951 [2],MIC MB9952 [2],MIC MB9953 [2],MIC MB9955 [2],MIC MB9963 [2],Structure (SMILES)
1.4 µM,1.4 µM,0.7 µM,1.4 µM,0.7 µM,0.7 µM,0.7 µM,0.7 µM,1.4 µM,1.4 µM,0.7 µM,0.7 µM,0.7 µM,0.7 µM,1.5 µM,0.7 µM,0.7 µM,"CC(=O)N[C@H](CCCCN)C(=O)N[C@H](CC(C)C)C(=O)N[C@H](CCCCN)C(=O)N[C@H](CO)C(=O)N[C@H](CC(C)C)C(=O)N[C@H](CC(C)C)C(=O)N[C@H](CCCCN)C(=O)N[C@@H](C(=O)N[C@H](CC(C)C)C(=O)N[C@H](CO)C(=O)N[C@H](CCCCN)C(=O)N[C@H](C)C(=O)N[C@H](CCCCN)C(=O)N[C@H](C)C(=O)N[C@H](C)C(=O)N[C@H](CCCCN)C(=O)N[C@H](CC(C)C)C(=O)N[C@H](CCCCN)C(=O)N[C@@H](C(=O)N[C@H](CC(C)C)C(=O)N[C@H](CC(C)C)C(=O)N[C@H](CCCCN)C(=O)N[C@H](C)C(=O)N[C@H](CC(C)C)C(=O)N[C@H](CO)C(=O)N[C@H](CO)C(N)=O)[C@H](C)O)[C@H](C)O [D101(Lys^1Ser^26-5Lys-1), Ac-KL(Lys)SLL(Lys)TLS(Lys)AKAAKL(Lys)TLL(Lys)ALS(Ser)-amide]"
0.7 µM,1.4 µM,0.7 µM,1.4 µM,0.3 µM,0.7 µM,0.3 µM,0.3 µM,0.7 µM,0.7 µM,0.3 µM,0.7 µM,0.3 µM,0.7 µM,0.7 µM,0.3 µM,0.7 µM,"CC(=O)N[C@H](CCCCN)C(=O)N[C@H](CC(C)C)C(=O)N[C@H](CCCCN)C(=O)N[C@H](CO)C(=O)N[C@H](CC(C)C)C(=O)N[C@H](CC(C)C)C(=O)N[C@H](CCCCN)C(=O)N[C@@H](C(=O)N[C@H](CC(C)C)C(=O)N[C@H](CO)C(=O)N[C@H](CCCCN)C(=O)N[C@H](C)C(=O)N[C@H](CCCCN)C(=O)N[C@H](C)C(=O)N[C@H](C)C(=O)N[C@H](CCCCN)C(=O)N[C@H](CC(C)C)C(=O)N[C@H](CCCCN)C(=O)N[C@@H](C(=O)N[C@H](CC(C)C)C(=O)N[C@H](CC(C)C)C(=O)N[C@H](CCCCN)C(=O)N[C@H](C)C(=O)N[C@H](CC(C)C)C(=O)N[C@H](CO)C(=O)N[C@H](CCCCN)C(N)=O)[C@H](C)O)[C@H](C)O [D84(Lys^1-6Lys-1), Ac-KL(Lys)SLL(Lys)TLS(Lys)AKAAKL(Lys)TLL(Lys)ALS(Lys)-amide]"
,,,,,,,,,,1.3 µM,1.3 µM,0.7 µM,0.7 µM,0.7 µM,0.7 µM,0.7 µM,"CC(=O)N[C@H](CCCCN)C(=O)N[C@H](CC(C)C)C(=O)N[C@H](CCCNC(=N)N)C(=O)N[C@H](CO)C(=O)N[C@H](CC(C)C)C(=O)N[C@H](CC(C)C)C(=O)N[C@H](CCCNC(=N)N)C(=O)N[C@@H](C(=O)N[C@H](CC(C)C)C(=O)N[C@H](CO)C(=O)N[C@H](CCCNC(=N)N)C(=O)N[C@H](C)C(=O)N[C@H](CCCCN)C(=O)N[C@H](C)C(=O)N[C@H](C)C(=O)N[C@H](CCCCN)C(=O)N[C@H](CC(C)C)C(=O)N[C@H](CCCNC(=N)N)C(=O)N[C@@H](C(=O)N[C@H](CC(C)C)C(=O)N[C@H](CC(C)C)C(=O)N[C@H](CCCNC(=N)N)C(=O)N[C@H](C)C(=O)N[C@H](CC(C)C)C(=O)N[C@H](CO)C(=O)N[C@H](CCCNC(=N)N)C(N)=O)[C@H](C)O)[C@H](C)O [D87(Lys^1-6Arg-1), Ac-KL(Arg)SLL(Arg)TLS(Arg)AKAAKL(Arg)TLL(Arg)ALS(Arg)-amide]"
